In this assay the test system is BN receptors on the Swiss 3T3 mouse fibroblast cell line. Briefly: Test 1: displacement of [¹²⁵I-Tyr⁴]-BN from BN receptors on Swiss 3T3 cells. In kind it is binding. The conditions noted are these: 1 nmol [¹²⁵I-Tyr⁴]-BN, 4 °C, 3 hours. The method, then: The biological investigation of the new compounds of the invention was carried out in four tests. The BN-antagonizing effect of the compounds in question was determined in Test 1, based on measuring the displacement of the labelled [¹²⁵I-Tyr⁴]-BN from the BN receptors being present on the Swiss 3T3 mouse fibroblast cells. Test 2 and Test 3 were used to study the inhibitory effect of the compounds of the invention on the proliferation and propagation of NCI-H69 small-cell lung cancer cells. The inhibitory effect of the compounds of the invention on non-small-cell lung cancer cells and epithelial-cell lung cancer cells was investigated in Test 4.
Study of the binding of target compounds to BN receptors on the Swiss 3T3 mouse fibroblast cell line
Swiss 3T3 mouse fibroblast cells were grown on tissue-cultivating plates containing 24 holes in a D-MEM culture medium containing FCS of 10 % until a confluent and resting state (3x10⁵ cell/hole). The cells were washed 3 times with 0.5 ml of D-MEM of pH 7.4 (containing 0.2 % of BSA and 24 mmol of HEPES, and cooled to 4 °C), i.e. incubation mixture, each. […] At the end of the reaction the cells were washed twice with the incubation mixture and then 3 times with PBS (pH = 7.4).
The washings were carried out with 750 µl volumes of the ice-cold liquids each. The cells were solubilized by adding 750 µl of 0.5 M sodium hydroxide solution, carried over into test-tubes by pipette and the radio-activity bound to the cells was measured. The grade of aspecific binding was determined in the presence of a high concentration (10⁻⁶ mol/l) of cold [Tyr⁴]-BN. The amount of the specifically bound, labelled hormone was expressed as the percentage of the maximum binding, i.e. the specific binding in the absence of the compounds to be tested, as shown in Table 1.

Where a SMILES comes first, the peptide text is derived from it. [ ]: non-standard residue; d: D form. The star is where a group is joined. X2 = CC(C)C[C@@H](CN[C@@H](CC(C)C)C(N)=O)N*; X1 = O=C(Cc1ccc(O)cc1)*

Take `CC(C)C[C@@H](CN[C@@H](CC(C)C)C(N)=O)NC(=O)[C@@H](Cc1c[nH]c2ccccc12)NC(=O)[C@H](Cc1ccccc1)NC(=O)[C@@H](Cc1c[nH]c2ccccc12)NC(=O)Cc1ccc(O)cc1` [(1)]: the “Displacement as percentage of control net binding” value (“Displacement as percentage” for short) was 105% (1.18 µmol/l compound); 96% (2.36 µmol/l compound); 99% (4.71 µmol/l compound); 103% (9.42 µmol/l compound); 106% (18.8 µmol/l compound); 107% (37.6 µmol/l compound). Further, the “Displacement as percentage” value (75 µmol/l compound) is recorded as 105%.

As for `CC(C)C[C@H](NC(=O)[C@H](CC(C)C)NC(=O)[C@@H](Cc1c[nH]c2ccccc12)NC(=O)[C@H](Cc1ccccc1)NC(=O)[C@@H](Cc1c[nH]c2ccccc12)NC(=O)Cc1ccc(O)cc1)C(N)=O` [(I), reference compound] (X1-[dW]F[dW]LL-NH2), the “Displacement as percentage” value is given as 108% (1.18 µmol/l compound); 98% (2.36 µmol/l compound); 83% (4.71 µmol/l compound); 55% (9.42 µmol/l compound); 33% (18.8 µmol/l compound); 18% (37.6 µmol/l compound). Besides, for the setting “75 µmol/l compound”, the “Displacement as percentage” value is listed as 23%.

Consider `CC(C)C[C@@H](CN[C@@H](CC(C)C)C(N)=O)NC(=O)[C@@H](Cc1c[nH]c2ccccc12)NC(=O)[C@H](Cc1ccccc1)NC(=O)[C@@H](Cc1c[nH]c2ccccc12)NC(=O)[C@H](N)Cc1ccc(O)cc1` [(4)] (H-[dY][dW]F[dW]-X2), for which the “Displacement as percentage” value is, setting by setting: (1.18 µmol/l compound) 85%; (2.36 µmol/l compound) 88%; (4.71 µmol/l compound) 79%; (9.42 µmol/l compound) 72%; (18.8 µmol/l compound) 61%; (37.6 µmol/l compound) 52%. Besides, where the note is “75 µmol/l compound”, the “Displacement as percentage” value was 45%.
